Reference: article PMC3005307 (Chemistry & biology, 2010)
“Also recorded” adds a separate entry of the source.

Assays:
[1] = system: TcdB holotoxin; format: cell-based, human
[2] = system: TcdB holotoxin; format: cell-based, human; remark: listed apart in the source
[3] = molecular target: TcdB CPD (Clostridioides difficile, UniProt P18177); format: biochemical, Clostridium difficile; details: autocleavage assay
TcdB CPD, sequence (P18177 1-804 limits assumed): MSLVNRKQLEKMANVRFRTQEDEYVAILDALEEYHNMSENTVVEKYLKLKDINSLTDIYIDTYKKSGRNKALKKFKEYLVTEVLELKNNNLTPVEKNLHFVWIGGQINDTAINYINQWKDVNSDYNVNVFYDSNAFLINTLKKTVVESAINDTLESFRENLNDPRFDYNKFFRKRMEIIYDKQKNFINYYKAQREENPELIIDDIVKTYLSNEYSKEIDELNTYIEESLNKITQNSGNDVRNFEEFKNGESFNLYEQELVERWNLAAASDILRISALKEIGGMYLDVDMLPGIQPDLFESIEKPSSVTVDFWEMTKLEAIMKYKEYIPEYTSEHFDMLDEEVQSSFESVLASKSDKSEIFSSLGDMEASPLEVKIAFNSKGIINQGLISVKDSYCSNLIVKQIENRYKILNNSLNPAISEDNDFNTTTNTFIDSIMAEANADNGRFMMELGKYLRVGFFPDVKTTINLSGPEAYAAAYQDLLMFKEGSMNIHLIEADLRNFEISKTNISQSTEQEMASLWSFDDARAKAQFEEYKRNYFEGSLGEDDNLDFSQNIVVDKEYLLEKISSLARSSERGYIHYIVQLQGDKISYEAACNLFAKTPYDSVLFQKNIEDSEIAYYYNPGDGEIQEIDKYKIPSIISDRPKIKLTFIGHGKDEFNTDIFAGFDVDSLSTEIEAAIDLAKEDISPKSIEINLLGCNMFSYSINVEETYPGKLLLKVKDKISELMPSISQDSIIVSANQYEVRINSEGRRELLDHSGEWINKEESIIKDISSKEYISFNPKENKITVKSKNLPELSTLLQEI

JPM-OEt was tested, and the “effect on Rac1 glucosylation by holotoxin” value [1] was “no effect on toxin function”, the “effect on holotoxin-mediated cell rounding” value [2] was “failed to inhibit toxin function; also recorded: no effect on toxin function” and the “inhibition of CPD activity” value [3] was “poorly inhibit CPD activity”.
